This is an account of results in ChEMBL document CHEMBL1955749, “Synthesis and anti-influenza activity of aminoalkyl rupestonates” (Bioorg Med Chem Lett, 2012).

Calls of active or inactive are those of the source. The calls are words filed in the database; no cut-off is given here.

In series [1] the test system is Influenza B virus. The experiment in a line: Antiinfluenza activity against influenza B virus. Format: functional, organism-based.
In series [2] the test system is Influenza A virus. The experiment in a line: Antiinfluenza activity against influenza A virus H3N2. Format: functional, organism-based.
For series [3], the system named is Influenza A virus. Put plainly: Antiinfluenza activity against influenza A virus H1N1. Format: functional, organism-based.
Series [4] concerns Influenza B virus. Put plainly: Antiinfluenza activity against influenza B virus infected in MDCK cells assessed as inhibition of virus-induced cytopathic effect after 36 hrs. It is filed as functional, organism-based.
Series [5] can be described thus: Selectivity index, ratio of TC50 for MDCK cells to IC50 for influenza A virus H1N1. It is filed as toxicity, cell-based. Particulars: dog, read-out: Selectivity Index.
Series [6] is described as follows: Selectivity index, ratio of TC50 for MDCK cells to IC50 for influenza B virus. It is filed as toxicity, cell-based. Particulars: dog, read-out: Selectivity Index.
The test system of series [7] is Influenza A virus. The experiment in a line: Antiinfluenza activity against influenza A virus H1N1 infected in MDCK cells assessed as inhibition of virus-induced cytopathic effect after 36 hrs. It is filed as functional, organism-based. (In general: Cytopathic effects are the visible damage that an infection or toxin causes in cultured cells.)
For series [8], the system named is Influenza A virus. The experiment in a line: Antiinfluenza activity against influenza A virus H3N2 infected in MDCK cells assessed as inhibition of virus-induced cytopathic effect after 36 hrs. Format: functional, organism-based.
Series [9] can be described thus: Selectivity index, ratio of TC50 for MDCK cells to IC50 for influenza A virus H3N2. Conditions: dog, read-out: Selectivity Index. It is filed as toxicity, cell-based.
The nature of series [10]: Cytotoxicity against MDCK cells. Format: cell-based, Canis lupus familiaris. Conditions: dog, read-out: TC50 (the source's name).
The subject of series [11] is Influenza A virus. The experiment in a line: Antiinfluenza activity against influenza A virus H3N2 infected in MDCK cells assessed as inhibition of virus-induced cytopathic effect at 0.15 to 1.37 ug/ml after 36 hrs. It is filed as functional, organism-based.
Series [12] has as its system Influenza A virus. The experiment in a line: Antiinfluenza activity against influenza A virus. It is filed as functional, organism-based.

For orientation: IC50 means the midpoint of a concentration-inhibition curve. As for `C=C(C(=O)OCCCl)[C@@H]1CC[C@H](C)[C@@H]2CC(=O)C(C)=C2C1`, the IC50 in the series on Influenza B virus [1] turned out to be 358 µM; with Influenza A virus [2], 17.2 µM; in the series with Influenza A virus [3], 27.8 µM.
For `C=C(C(=O)OCCCCCCCCCCn1cncn1)[C@@H]1CC[C@H](C)[C@@H]2CC(=O)C(C)=C2C1`, the IC50 turned out to be 11.3 µM in the series with Influenza B virus [4], 0.42 µM in the series on Influenza A virus [7] and 0.97 µM with Influenza A virus [8]. For the same compound, the selectivity ratio in series [5] is 65; in series [6] it was 2.4; in [9], 28.1. The CC50 in [10] was 27.1 µM. In addition, the inhibition entry with Influenza A virus [11] was “Active”.
`C=C(C(=O)OCCCCCCCCCCBr)[C@@H]1CC[C@H](C)[C@@H]2CC(=O)C(C)=C2C1`: the IC50 in the series with Influenza B virus [4] is over 26.5 µM; in the series with Influenza A virus [7], 6.7 µM; with Influenza A virus [8] it was 16.4 µM. Also, the selectivity ratio was found to be 20.5 in series [5] and 8.4 in [9]. Also, the CC50 in series [10] was determined as 138 µM. Also, in the series with Influenza A virus [11], the inhibition entry is “Active”.
In the case of `C=C(C(=O)O)[C@@H]1CC[C@H](C)[C@@H]2CC(=O)C(C)=C2C1c1ccc(C(C)(C)C)cc1` (some centres undefined), the IC50 in the series with Influenza A virus [12] stood at 0.5 µM.
